Test results reported in patent publication US10874743B2, “IRAK degraders and uses thereof” (Kymera Therapeutics, Inc., priority 2017, dated 2020).

Target: T1, IRAK4 (Homo sapiens, UniProt Q9NWZ3)
T1 sequence (Q9NWZ3 1-460): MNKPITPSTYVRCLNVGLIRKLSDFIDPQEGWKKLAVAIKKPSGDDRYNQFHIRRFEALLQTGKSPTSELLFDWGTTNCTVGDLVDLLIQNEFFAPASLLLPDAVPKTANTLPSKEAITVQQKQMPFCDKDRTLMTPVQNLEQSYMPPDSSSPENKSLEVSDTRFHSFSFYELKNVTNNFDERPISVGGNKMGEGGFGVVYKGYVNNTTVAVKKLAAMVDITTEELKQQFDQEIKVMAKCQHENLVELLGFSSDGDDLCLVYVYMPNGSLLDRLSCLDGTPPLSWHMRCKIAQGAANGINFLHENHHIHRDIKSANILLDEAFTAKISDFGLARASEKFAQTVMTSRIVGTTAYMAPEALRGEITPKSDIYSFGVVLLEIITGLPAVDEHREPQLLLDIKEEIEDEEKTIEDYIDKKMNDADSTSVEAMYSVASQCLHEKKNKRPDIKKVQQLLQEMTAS
Experiment: OCI-LY-10 degradation assay (western blot, % IRAK4 degraded after 4 hours)
Type: cell-based
Parameters: endogenous in cells; host or cells: OCI-LY10
Details: OCI-LY10 cells, IRAK4 degraded after 4 hours, western blot
Description: Compounds were reconstituted in DMSO to make stock solutions at concentration of 60 mM. THP-1 and OCI-LY10 cells were maintained in RPMI-1640 medium containing 10% FBS, 0.5 μM 2-ME or 20% FBS, 55 μM 2-ME, and 1% L-Glutamine respectively.
Cells were seeded into 6-well plates with 5e6 cells per well. 200 μL of diluted compounds were added to cells to the final concentration of 0.003-10 μM. After 4 or 24 hour-incubation at 37° C., cells were collected into 2 mL Eppendorf tubes and centrifuged at 1,000 rpm for 5 min. The cell pellets were washed with 1×DPBS once and resuspended in 60 μL lysis buffer. The cells were lysed on ice for 10 min, then centrifuged at 14,000 rpm for 10 min at 4° C. and the supernatants were collected for western blots. For THP-1 cells, the lysis buffer contained 40 mM pH 7.4 HEPES, 140 mM NaCl, 2.5 mM EDTA, 1% NP-40, 0.1% SDS, and protease inhibitor cocktail (Roche, Cat. No. 05892791001). For OCI-LY10 cells, RIPAbuffer (Thermo Fisher, 89900) with Halt Protease and Phosphatase Inhibitor Cocktail (Thermo Fisher, 78446) was applied.
The protein concentration of cell lysates was quantified with Pierce™ BCA Protein Assay Kit (Pierce, 23227). Albumin standards at different concentrations were prepared, involving 2,000 ug/mL, 1,500 ug/mL, 1,000 ug/mL, 750 ug/mL, 500 ug/mL, 250 ug/mL, 125 ug/mL, and 25 ug/mL. BCA working reagents were prepared by mixing BCA reagent A with reagent B in 50:1 ratio. 200 μL of the BCA working reagents were added to 25 μL of BCA standard or cell lysates in microplate, and mixed thoroughly on a plate shaker for 30 seconds. After incubation at 37° C. for 30 min, the absorbance of samples at 562 nm were measured with EnVision Plate Reader.
Protein lysates were prepared in NuPAGE™ LDS sample buffer and NuPAGE™ sample reducing agent, and incubated at 95° C. for 5 min. For western blots, 20-25 μg of total proteins were resolved in 4-12% Bis-Tris gels (Introgen, WG1403A) or 10% Bis-Tris Midi gels (Invitrogen, WG1202BOX) running with 1×MOPS SDS running buffer (Invitrogen, NP0001) or 1×MES SDS running buffer (Invitrogen, NP0002). The proteins were transferred to low fluorescence PVDF membranes using the Trans-Blot Turbo Transfer System. Membranes were then blocked in Odyssey blocking buffer at RT for 1 h followed by primary incubation at 4° C. overnight. The primary antibodies were IRAK1 rabbit monoclonal antibody (CST, #4504S, 1:500), IRAK3 rabbit polyclonal antibody (CST, #4369, 1:500), IRAK4 rabbit polyclonal antibody (CST, #4363S, 1:1,000), MyD88 rabbit monoclonal antibody (Abcam, Ab133739, 1:2,000), j3-actin mouse monoclonal antibody (Sigma, A5441, 10,000), and Gapdh mouse monoclonal antibody (Millipore, MAB374, 1:5,000). Membranes were washed three times with 1×TBST, and then incubated with IR Dye 800 CW Goat anti-rabbit (Licor, #926-32211) and IR Dye 700 CW Goat anti-mouse (Licor, #926-68070) secondary antibodies in 1:10,000 dilution at RT for 1 h. The western blot images were obtained using Odyssey Imaging System.
OCI-LY-10 results at 4 hours. The letter codes indicate the percentage of IRAK4 degraded after 4 hours: A (>50% degradation), B (>20-50% degradation) and C (<20% degradation)
OCI-LY-10 results at 4 hours. The letter codes for % IRAK4 degradation indicate the percentage of IRAK4 degraded after 4 hours across three different concentrations: A (>50% degradation), B (>20-50% degradation) and C (<20% degradation).

| OCI-LY10 % IRAK4 Degradation | Compound |
| --- | --- |
| C (<20% degradation) | O=C(COc1cccc2c1C(=O)N(C1CCC(=O)NC1=O)C2=O)NCCCCNC(=O)[C@H]1CC[C@H](NC(=O)c2cnc(Nc3ccc4cnccc4n3)cc2NC2CC2)CC1 (stereo partly shown) [I-9] |
| C (<20% degradation) | N#Cc1cnc2c(cnn2-c2cc(NC3CC3)c(C(=O)N[C@H]3CC[C@H](C(=O)NCCOCCOCCOCCNC(=O)COc4cccc5c4C(=O)N(C4CCC(=O)NC4=O)C5=O)CC3)cn2)c1 (stereo partly shown) [I-17] |
| B (>20-50% degradation) | N#Cc1cnc2c(cnn2-c2cc(NC3CC3)c(C(=O)N[C@H]3CC[C@H](COCCOCCOCCOCCNC(=O)COc4cccc5c4C(=O)N(C4CCC(=O)NC4=O)C5=O)CC3)cn2)c1 (stereo partly shown) [I-18] |
| C (<20% degradation) | N#Cc1cnc2c(cnn2-c2cc(NC3CC3)c(C(=O)N[C@H]3C[C@H](C(=O)NCCOCCOCCOCCOCCNc4cccc5c4C(=O)N(C4CCC(=O)NC4=O)C5=O)C3)cn2)c1 (stereo partly shown) [I-21, 6-(5-cyano-1H-pyrazolo[3,4-b]pyridin-1-yl)-4-(cyclopropylamino)-N-((1r,3r)-3-((14-((2-(2,6-dioxopiperidin-3-yl)-1,3-dioxoisoindolin-4-yl)amino)-3,6,9,12-tetraoxatetradecyl)carbamoyl)cyclobutyl)nicotinamide] |
| C (<20% degradation) | N#Cc1cnc2c(cnn2-c2cc(NC3CC3)c(C(=O)N[C@H]3CC[C@H](C(=O)NCCOCCOCCOCCOCCNc4cccc5c4C(=O)N(C4CCC(=O)NC4=O)C5=O)CC3)cn2)c1 (stereo partly shown) [I-22, 6-(5-cyano-1H-pyrazolo[3,4-b]pyridin-1-yl)-4-(cyclopropylamino)-N-((1r,4r)-4-((14-((2-(2,6-dioxopiperidin-3-yl)-1,3-dioxoisoindolin-4-yl)amino)-3,6,9,12-tetraoxatetradecyl)carbamoyl)cyclohexyl)nicotinamide] |
| C (<20% degradation) | O=C1CCC(N2C(=O)c3cccc(NCCOCCOCCNC(=O)[C@H]4C[C@H](NC(=O)c5cnc(Nc6ccc7cnccc7n6)cc5NC5CC5)C4)c3C2=O)C(=O)N1 (stereo partly shown) [I-26, 6-((1,6-naphthyridin-2-yl)amino)-4-(cyclopropylamino)-N-((1r,3r)-3-((2-(2-(2-((2-(2,6-dioxopiperidin-3-yl)-1,3-dioxoisoindolin-4-yl)amino)ethoxy)ethoxy)ethyl)carbamoyl)cyclobutyl)nicotinamide] |
| C (<20% degradation) | N#Cc1cnc2c(cnn2-c2cc(NC3CC3)c(C(=O)N[C@H]3C[C@H](C(=O)NCCOCCOCCNc4cccc5c4C(=O)N(C4CCC(=O)NC4=O)C5=O)C3)cn2)c1 (stereo partly drawn) [I-27, 6-(5-cyano-1H-pyrazolo[3,4-b]pyridin-1-yl)-4-(cyclopropylamino)-N-((1R,3R)-3-((2-(2-(2-((2-(2,6-dioxopiperidin-3-yl)-1,3-dioxoisoindolin-4-yl)amino)ethoxy)ethoxy)ethyl)carbamoyl)cyclobutyl)nicotinamide] |
| C (<20% degradation) | O=C1CCC(N2C(=O)c3cccc(NCCOCCOCCOC[C@H]4C[C@H](NC(=O)c5cnc(Nc6ccc7cnccc7n6)cc5NC5CC5)C4)c3C2=O)C(=O)N1 (stereo partly shown) [I-31] |
| C (<20% degradation) | N#Cc1cnc2c(cnn2-c2cc(NC3CC3)c(C(=O)N[C@H]3CC[C@H](COCCOCCOCCNc4cccc5c4C(=O)N(C4CCC(=O)NC4=O)C5=O)CC3)cn2)c1 (stereo partly shown) [I-32] |
| C (<20% degradation) | N#Cc1cnc2c(cnn2-c2cc(NC3CC3)c(C(=O)N[C@H]3CC[C@H](COCCOCCOCCOCCOCCNc4cccc5c4C(=O)N(C4CCC(=O)NC4=O)C5=O)CC3)cn2)c1 (stereo partly shown) [I-33] |
| C (<20% degradation) | N#Cc1cnc2c(cnn2-c2cc(NC3CC3)c(C(=O)N[C@H]3C[C@H](COCCOCCOCCNc4cccc5c4C(=O)N(C4CCC(=O)NC4=O)C5=O)C3)cn2)c1 (stereo partly shown) [I-34] |
| C (<20% degradation) | N#Cc1cnc2c(cnn2-c2cc(NC3CC3)c(C(=O)N[C@H]3CC[C@H](COCCOCCOCCNc4cccc5c4C(=O)N(C4CCC(=O)NC4=O)C5=O)C3)cn2)c1 (stereo partly shown) [I-35] |
| C (<20% degradation) | N#Cc1cnc2c(cnn2-c2cc(NC3CC3)c(C(=O)N[C@H]3C[C@H](COCCOCCOCCOCCOCCNc4cccc5c4C(=O)N(C4CCC(=O)NC4=O)C5=O)C3)cn2)c1 (stereo partly shown) [I-36] |
| C (<20% degradation) | CN(CCOCCOCCNc1cccc2c1C(=O)N(C1CCC(=O)NC1=O)C2=O)C(=O)[C@H]1C[C@H](NC(=O)c2cnc(-n3ncc4cc(C#N)cnc43)cc2NC2CC2)C1 (stereo partly shown) [I-37] |
| C (<20% degradation) | CN(CCOCCOCCOCCOCCNc1cccc2c1C(=O)N(C1CCC(=O)NC1=O)C2=O)C(=O)[C@H]1CC[C@H](NC(=O)c2cnc(-n3ncc4cc(C#N)cnc43)cc2NC2CC2)CC1 (stereo partly shown) [I-38] |
| C (<20% degradation) | CN(CCOCCOCCOCCOCCNc1cccc2c1C(=O)N(C1CCC(=O)NC1=O)C2=O)C(=O)[C@H]1C[C@H](NC(=O)c2cnc(-n3ncc4cc(C#N)cnc43)cc2NC2CC2)C1 (stereo partly shown) [I-39] |
| C (<20% degradation) | O=C1CCC(N2C(=O)c3cccc(NCCOCc4ccc(COCCNC(=O)[C@H]5CC[C@H](NC(=O)c6cnc(Nc7ccc8cnccc8n7)cc6NC6CC6)CC5)nc4)c3C2=O)C(=O)N1 (stereo partly shown) [I-41, 6-((1,6-naphthyridin-2-yl)amino)-4-(cyclopropylamino)-N-((1r,4r)-4-((2-((5-((2-((2-(2,6-dioxopiperidin-3-yl)-1,3-dioxoisoindolin-4-yl)amino)ethoxy)methyl)pyridin-2-yl)methoxy)ethyl)carbamoyl)cyclohexyl)nicotinamide] |
| C (<20% degradation) | CN(CCOCCOCCNc1cccc2c1C(=O)N(C1CCC(=O)NC1=O)C2=O)C(=O)[C@H]1CC[C@H](NC(=O)c2cnc(-n3ncc4cc(C#N)cnc43)cc2NC2CC2)CC1 (stereo partly shown) [I-42, 6-(5-cyano-1H-pyrazolo[3,4-b]pyridin-1-yl)-4-(cyclopropylamino)-N-((1r,4r)-4-((2-(2-(2-((2-(2,6-dioxopiperidin-3-yl)-1,3-dioxoisoindolin-4-yl)amino)ethoxy)ethoxy)ethyl) (methyl)carbamoyl)cyclohexyl)nicotinamide] |
| B (>20-50% degradation) | CN(CCOCCOCCNc1cccc2c1C(=O)N(C1CCC(=O)NC1=O)C2=O)C(=O)[C@H]1C[C@H](NC(=O)c2cnc(Nc3ccc4cnccc4n3)cc2NC2CC2)C1 (stereo partly shown) [I-44, 6-((1,6-naphthyridin-2-yl)amino)-4-(cyclopropylamino)-N-((1r,3r)-3-((2-(2-(2-((2-(2,6-dioxopiperidin-3-yl)-1,3-dioxoisoindolin-4-yl)amino)ethoxy)ethoxy)ethyl)(methyl)carbamoyl)cyclobutyl)nicotinamide] |
